Values after ≈ are worked out from the molar mass of the structure shown.
How the values were obtained:
Assay type in all cases: functional
UO-31 = assay: Cytotoxicity against human UO31 cells after 48 hrs by SRB assay; settings: UO-31, 48 h, read-out: ED50 (the source's name)
MOLT-4F = assay: Cytotoxicity against human MOLT4F cells after 48 hrs by SRB assay; settings: read-out: ED50 (the source's name)
LOX IMVI = assay: Cytotoxicity against human LOXIMVI cells after 48 hrs by SRB assay; settings: read-out: ED50 (the source's name)
KM12 = assay: Cytotoxicity against human KM12 cells after 48 hrs by SRB assay; settings: KM12, 48 h, read-out: ED50 (the source's name)
[1] = Cytotoxicity against human CRL1579 cells after 48 hrs by SRB assay; settings: read-out: ED50 (the source's name)

COc1cccc2c1C(=O)c1c(O)c3c(c(O)c1C2=O)C[C@@](O)(C(=O)CO)C[C@@H]3O[C@H]1C[C@H](N)[C@H](O)[C@H](C)O1 [DOXORUBICIN]
EC50 (UO-31): 0.3 µg/mL (≈ 0.552 µM) | EC50 (MOLT-4F): 0.02 µg/mL (≈ 0.0368 µM) | EC50 (LOX IMVI): 0.13 µg/mL (≈ 0.239 µM) | EC50 (KM12): 0.11 µg/mL (≈ 0.202 µM) | EC50 [1]: 0.16 µg/mL (≈ 0.294 µM)

O=C1c2c(O)c(Cc3ccc(O)cc3)c(O)c(Cc3ccc(O)cc3)c2O[C@H](c2ccc(O)cc2)[C@H]1O [GERICUDRANIN D]
EC50 (UO-31): 5.2 µg/mL (≈ 10.4 µM) | EC50 (MOLT-4F): 8.9 µg/mL (≈ 17.8 µM) | EC50 (LOX IMVI): 16.6 µg/mL (≈ 33.2 µM) | EC50 (KM12): 5 µg/mL (≈ 9.99 µM) | EC50 [1]: 9.5 µg/mL (≈ 19 µM)

O=C1c2c(cc(O)c(Cc3ccc(O)cc3)c2O)O[C@H](c2ccc(O)cc2)[C@H]1O [GERICUDRANIN E]
EC50 (UO-31): 7.6 µg/mL (≈ 19.3 µM) | EC50 (MOLT-4F): 10.7 µg/mL (≈ 27.1 µM) | EC50 (LOX IMVI): 12.5 µg/mL (≈ 31.7 µM) | EC50 (KM12): 11.9 µg/mL (≈ 30.2 µM) | EC50 [1]: 2.9 µg/mL (≈ 7.35 µM)

Reference: ChEMBL document CHEMBL1150084, “Two Benzylated Dihydroflavonols from Cudrania tricuspidata” (1995)
